Laboratory results: ChEMBL document CHEMBL1201862, “PubChem BioAssay data set” (2004)
“And” between values parts separate entries of the source, which are not always exact repeats. Equal values may be shown once.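 Five compound concentrations were applied to cells in 96-well plates for 48 hours; endpoints were derived by simple linear interpolation of the resulting dose-response curve. The concentration for 50% growth inhibition is given as GI50.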 The source made the active and inactive calls. No stated cut-off is given here; in the data, active = GI50 up to about 1.1 µM and inactive = higher.

Legend:
Test in all cases: inhibition of tumour cell growth, NCI panel, 48 h
[1] = system: A498
[2] = system: EKVX
[3] = system: MDA-MB-231
[4] = system: NCI-H522
[5] = system: MDA-MB-435
[6] = system: Malme-3M
[7] = system: IGROV-1
[8] = system: MCF7
[9] = system: NCI-H460
[10] = system: MDA-N
[11] = system: SK-MEL-5
[12] = system: SK-MEL-28
[13] = system: MOLT-4
[14] = system: CAKI-1
[15] = system: SF-295
[16] = system: HCT-15
[17] = system: SNB-75
[18] = system: KM12
[19] = system: HCC 2998
[20] = system: U-251
[21] = system: COLO 205
[22] = system: PC-3
[23] = system: HL-60
[24] = system: UACC-257
[25] = system: NCI/ADR-RES
[26] = system: OVCAR-3
[27] = system: NCI-H226
[28] = system: HT-29
[29] = system: OVCAR-5
[30] = system: T47D
[31] = system: RPMI-8226
[32] = system: K562
[33] = system: UO-31
[34] = system: M14
[35] = system: UACC-62
[36] = system: RXF 393
[37] = system: SNB-19
[38] = system: 786-0
[39] = system: TK-10
[40] = system: DU-145
[41] = system: SK-OV-3
[42] = system: OVCAR-8
[43] = system: SW-620
[44] = system: SN12C
[45] = system: LOX IMVI
[46] = system: NCI-H23
[47] = system: A549
[48] = system: SF-268
[49] = system: SR
[50] = system: HOP-62
[51] = system: CCRF-CEM
[52] = system: OVCAR-4
[53] = system: Hs-578T

SMILES: CC(=O)OCC1OC(n2c(-c3ccccc3)c(C)c(C)c(C#N)c2=S)C(OC(C)=O)C(OC(C)=O)C1OC(C)=O (configuration not stated)
- GI50 [1]: > 50 µM (inactive) and 43.8 µM (inactive)
- GI50 [2]: 13.5 µM (inactive) and 14.8 µM (inactive)
- GI50 [3]: 12.9 µM (inactive) and 12.8 µM (inactive)
- GI50 [4]: > 50 µM (inactive) and 65.8 µM (inactive)
- GI50 [5]: 57.5 µM (inactive)
- GI50 [6]: > 50 µM (inactive) and 38.1 µM (inactive)
- GI50 [7]: > 100 µM (inactive)
- GI50 [8]: > 50 µM (inactive)
- GI50 [9]: > 50 µM (inactive) and 43.4 µM (inactive)
- GI50 [10]: 28.8 µM (inactive) and 18.1 µM (inactive)
- GI50 [11]: > 100 µM (inactive)
- GI50 [12]: 72.4 µM (inactive)
- GI50 [13]: > 50 µM (inactive)
- GI50 [14]: > 50 µM (inactive)
- GI50 [15]: 21 µM (inactive) and 23.1 µM (inactive)
- GI50 [16]: 64.4 µM
- GI50 [17]: > 100 µM (inactive)
- GI50 [18]: > 50 µM (inactive)
- GI50 [19]: > 50 µM (inactive) and 86.3 µM (inactive)
- GI50 [20]: 20.3 µM (inactive)
- GI50 [21]: > 100 µM (inactive)
- GI50 [22]: 26.4 µM (inactive)
- GI50 [23]: > 100 µM (inactive)
- GI50 [24]: 54.5 µM (inactive)
- GI50 [25]: 34.2 µM (inactive) and 47.4 µM (inactive)
- GI50 [26]: 37.4 µM (inactive) and 27.2 µM (inactive)
- GI50 [27]: > 50 µM (inactive)
- GI50 [28]: > 50 µM (inactive)
- GI50 [29]: 37.3 µM (inactive)
- GI50 [30]: > 50 µM (inactive) and 34 µM (inactive)

SMILES: Cc1ccc(-c2cc(-c3ccco3)c(C#N)c(=S)n2C2OC(CO)C(O)C(O)C2O)cc1 (configuration not stated)
- GI50 [1]: 41 µM (inactive) and 28.2 µM (inactive)
- GI50 [2]: > 100 µM (inactive) and 95.9 µM (inactive)
- GI50 [5]: 43.2 µM (inactive) and 38.9 µM (inactive)
- GI50 [8]: 27.9 µM (inactive) and 49 µM (inactive)
- GI50 [9]: 28 µM (inactive) and 36.6 µM (inactive)
- GI50 [10]: 30.4 µM (inactive) and 34.4 µM (inactive)
- GI50 [12]: 52.2 µM (inactive) and 41 µM (inactive)
- GI50 [31]: 4.46 µM (inactive) and 6.04 µM (inactive)
- GI50 [32]: 39 µM (inactive)
- GI50 [33]: 18.5 µM (inactive) and 31.7 µM (inactive)
- GI50 [16]: 94.6 µM and 49.2 µM
- GI50 [17]: 66.4 µM (inactive) and 60.5 µM (inactive)
- GI50 [18]: 17.2 µM (inactive) and 30.1 µM (inactive)
- GI50 [34]: 17.7 µM (inactive) and 30.3 µM (inactive)
- GI50 [35]: 2.23 µM (inactive) and 2.48 µM (inactive)
- GI50 [19]: > 100 µM (inactive)
- GI50 [36]: 18.6 µM (inactive) and 18.9 µM (inactive)
- GI50 [21]: 27.2 µM (inactive) and 35.1 µM (inactive)
- GI50 [37]: 36.1 µM (inactive) and 68.9 µM (inactive)
- GI50 [24]: 53.8 µM (inactive) and 45.3 µM (inactive)
- GI50 [38]: 36.6 µM (inactive) and 56.8 µM (inactive)
- GI50 [26]: 21.4 µM (inactive) and 35.6 µM (inactive)
- GI50 [28]: 34.9 µM (inactive) and 34 µM (inactive)
- GI50 [39]: 67.8 µM (inactive) and 54.5 µM (inactive)
- GI50 [29]: 45.7 µM (inactive) and 39.5 µM (inactive)

SMILES: CCOC(=O)c1sc2nc(-c3ccccc3)nn2c1CBr
- GI50 [2]: > 10 µM (inactive)
- GI50 [3]: 1.9 µM (inactive)
- GI50 [40]: > 10 µM (inactive)
- GI50 [41]: 3.12 µM (inactive)
- GI50 [6]: 2.07 µM (inactive)
- GI50 [42]: 2.07 µM (inactive)
- GI50 [7]: 3.17 µM (inactive)
- GI50 [43]: 1.73 µM (inactive)
- GI50 [8]: 1.91 µM (inactive)
- GI50 [44]: 1.74 µM (inactive)
- GI50 [11]: 1.77 µM (inactive)
- GI50 [12]: 1.95 µM (inactive)
- GI50 [13]: 0.296 µM (active)
- GI50 [31]: 1.74 µM (inactive)
- GI50 [45]: 1.56 µM (inactive)
- GI50 [32]: 0.589 µM (active)
- GI50 [46]: 1.94 µM (inactive)
- GI50 [47]: 5.11 µM (inactive)
- GI50 [48]: 2.04 µM (inactive)
- GI50 [14]: 1.5 µM (inactive)
- GI50 [15]: 9.29 µM (inactive)
- GI50 [17]: 2.24 µM (inactive)
- GI50 [49]: 0.311 µM (active)
- GI50 [18]: 2.11 µM (inactive)
- GI50 [34]: 1.51 µM (inactive)
- GI50 [19]: 5.33 µM (inactive)
- GI50 [36]: 2.59 µM (inactive)
- GI50 [21]: 1.9 µM (inactive)
- GI50 [22]: 2.06 µM (inactive)
- GI50 [50]: > 10 µM (inactive)
- GI50 [23]: 0.348 µM (active)
- GI50 [24]: 2.16 µM (inactive)
- GI50 [38]: 1.6 µM (inactive)
- GI50 [28]: 1.89 µM (inactive)
- GI50 [39]: 2.34 µM (inactive)
- GI50 [51]: 0.244 µM (active)
- GI50 [30]: 2.42 µM (inactive)

SMILES: Cc1nc2ccc(Br)cc2c(=O)n1-c1ccc(NC2OCC(O)C(O)C2O)cc1 (configuration not stated)
- GI50 [1]: > 100 µM (inactive)
- GI50 [2]: > 100 µM (inactive)
- GI50 [40]: > 100 µM (inactive)
- GI50 [7]: 62.4 µM (inactive)
- GI50 [11]: 58.3 µM (inactive)
- GI50 [52]: > 100 µM (inactive) and 87.5 µM (inactive)
- GI50 [47]: > 100 µM (inactive)
- GI50 [48]: > 100 µM (inactive) and 55.6 µM (inactive)
- GI50 [53]: 58.9 µM (inactive)
- GI50 [15]: > 100 µM (inactive)
- GI50 [37]: > 100 µM (inactive)
- GI50 [50]: > 100 µM (inactive)
- GI50 [27]: > 100 µM (inactive)
- GI50 [39]: > 100 µM (inactive) and 59.3 µM (inactive)
- GI50 [29]: > 100 µM (inactive)
